Assay results taken from US20260008784A1 (VASTHERA CO., LTD., priority 2022, published 2026).

Tests used:
[1] = test system: VEGF-induced tyrosine phosphorylation and ERK2 phosphorylation in PAEC; assay: Immunoblot of VEGF-mediated signaling in PrxII knock-down PAEC; type: cell-based, human; conditions: PAECs, VEGF stimulation, FIG. 6
Description: (§1) Cells were quickly washed in ice-cold phosphate-buffered saline (PBS) and lysed in extraction buffer containing 20 mM Hepes (pH 7.0), 1% Triton X-100, 150 mM NaCl, 10% glycerol, 1 mM EDTA, 2 mM EGTA, and 1 mM DTT, 5 mM Na3VO4, 5 mM NaF, 1 mM AEBSF, aprotinin (5 μg/mL), and leupeptin (5 μg/mL). After cen-trifugation at 12,000×g, the clarified cell extracts were used for immunoblotting. For re-blotting, the immunoblots were retrieved in a solution of 67 mM Tris (pH 6.7), 2% SDS, and 100 mM 2-mercaptoethanol at 60° C. for 30 min to remove antibodies and rinsed three times with a Tris-buffered saline (TBS) solution containing 1% Triton X-100. The retrieved membranes were subjected to new immunoblotting.
In human aortic endothelial cell (HAEC) and human pulmonary artery endothelial cell (PAEC) in which PrxII was knocked out by transfecting the PrxII siRNA, the ability of test compounds to replace the cellular function of PrxII was evaluated. That is, the efficacy of the new compounds was verified in terms of signaling pathways induced by VEGF that regulates the growth and migration of vascular endothelial cells in the aorta and pulmonary artery. Activation of VEGF-induced signaling pathway was analyzed by an immunoblot method using an antibody that specifically recognizes phosphorylation of Tyr 1175, which is a major phosphorylation site on VEGF receptor-2 (VEGFR2).

[2] = test system: SuHx rat model of pulmonary arterial hypertension; assay: Sugen/hypoxia (SuHx) rat model of pulmonary arterial hypertension; type: in vivo; conditions: P.O., once daily, 0.1 mg/kg, 5 weeks; for RV hypertrophy (Fulton's index) / Right ventricular systolic pressure (RVSP): compared to vehicle control group, FIG. 7
Description: The rat study protocol was approved by the Institutional Animal Care and Use Committee of the Ewha Womans University, Republic of Korea, and conforms to the ARRIVE guidelines. Six-week-old rats were acclimatized for one week in the laboratory. Then, Sugen 5416 (Sigma Aldrich) was subcutaneously injected at a dose of 20 mg/kg. The administered subjects were maintained in a normobaric hypoxic (10% O2) chamber (A chamber, Biosphenix) for 3 weeks. Rats were transferred to normoxia and orally administered with either control vehicle or test compounds for additional 5 weeks (P.O., once daily, 0.1 mg per kg weight).
Right ventricular systolic pressure (RVSP) was measured by […] using a curved catheter equipped with PowerLab2/26 device (AD Instruments, UK). Rats were anesthetized with 2% isoflurane inhalation. A catheter was inserted through the right jugular vein, the pressure was measured for 10 seconds with stabilized pattern. After […], rats were perfused with saline, and the heart was carefully removed. The removed heart was dissected into the right ventricle (RV), the rest of the septum (S; septum), and the left ventricle (LV). Each piece of heart was weighed using a microbalance. The RV/(LV+S) value was calculated and represented as a right ventricular hypertrophy index (Fulton's index).
Rats were anesthetized with 2% isoflurane inhalation and subjected to transcardiac perfusion-fixation with heparinized saline solution containing […]. Then, left lung lobes were incised and fixed in 10% NBF for 3 days. The fixed tissues were paraffin-embedded and sectioned using a rotary microtome (Leica HistoCore MULTICUT). Two serial tissue sections (4 μm thick) were placed a slide glass and stained with hematoxylin and eosin (HE). For analysis, ˜100 pulmonary arteries (diameter 20-100 μm) per tissue section were chosen for measurement. The luminal, internal elastic laminal, and external elastic laminal areas were quantified using NIH ImageJ v1.62. The intimal and medial areas were determined by subtraction of the luminal area from the internal elastic area and by subtracting the internal elastic area from the external elastic area. The values were averaged and used for calculating pulmonary arterial vessel thickness.
Paraffin sections were blocked with 5% normal donkey serum (Vector Laboratories) in PBST (PBS solution of 0.3% Triton X-100) for 1 h at room temperature. Thereafter, lung tissue sections were incubated with […] for Alexa Fluor 568-conjugated smooth muscle actin (α-SMA; 1:300 dilution) and Alexa Fluor 488-conjugated von Willebrand Factor (vWF; 1:200 dilution) at 4° C. for 12 h. Subsequently, nuclei were counterstained with DAPI. Fluorescence images were recorded in random regions of at least 10 pulmonary artery vessels (diameter 20-100 um) per tissue section at a screen magnification of 60× using an LSM 880 confocal microscope equipped with argon and helium-neon lasers.
The therapeutic effect of new compounds on pulmonary arterial hypertension was evaluated in a preclinical SuHx rat model. For establishing PAH model, rats were administered with Sugen (VEGFR2 inhibitor) and placed in a normobaric hypoxic condition (10% O2) for 3 weeks. Rats were moved to normoxic condition and orally administered with control vehicle or compound 1 or 8 (P.O., once daily, 0.1 mg/kg) for 5 weeks. Thereafter, right ventricular systolic pressure (RVSP) and right ventricular hypertrophy (Fulton's index) were measured at the end of treatment.

[3] = test system: PDGF-induced tyrosine phosphorylation and PLC-γ1 phosphorylation in PASMC; assay: Immunoblot of PDGF-mediated signaling in PrxII knock-down PASMC; type: cell-based, human; conditions: PASMCs, PDGF stimulation, FIG. 3
Description: as §1
In human aortic smooth muscle cell (HASMC) and human pulmonary artery smooth muscle cell (PASMC) in which PrxII was knocked out by transfecting the PrxII siRNA, the ability of test compounds to replace the cellular function of PrxII was evaluated. That is, the efficacy of the new compounds was verified in terms of signaling pathways induced by PDGF that regulates the growth and migration of vascular smooth muscle cells in the aorta and pulmonary artery. Activation of PDGF-induced signaling pathway was analyzed by an immunoblot method using an antibody that specifically recognizes phosphorylation of Tyr 857, which is a major phosphorylation site on PDGF receptor (PDGFRβ).

[4] = in vitro; conditions: human
Description: (§2) For cytotoxicity analysis, human aortic endothelial cells (HAEC) and smooth muscle cells (HASMC) were seeded in a 96-well culture plate at density of 4000 cells/well in a final volume of 100 μL. Cells were cultured for 24 h and serum-starved for an additional 18 h. Test compounds were serially diluted with EBM-2 culture medium, added to the plate at 100 μL/well, and further incubated for 24 h. The number of viable cells was measured using the WST-1 cell viability assay kit (Roche Diagnostics, USA). Cell number was expressed as absorbance values at 450 nm after subtracting the turbidity value at 600 nm. The absorbance values from three replicate wells were averaged.
(§3) After treatment with ascending concentrations of each compound, the concentration of test compound corresponding to 50% cell viability (CC50) was measured.

[5] = in vitro; conditions: human; remark: listed apart in the source
Description: as §2, §3

Structure (SMILES) | Effect on total tyrosine phosphorylation and phosphorylation of signaling proteins downstream of VEGFR2 [1] | RV hypertrophy (Fulton's index) [2] | Right ventricular systolic pressure (RVSP) [2] | Effect on total tyrosine phosphorylation and phosphorylation of signaling proteins downstream of PDGFRβ [3] | CC50 [4] [µM] | Pulmonary arterial vessel occlusion (histology) ([2]; FIG. 8) | Endothelial layer (vWF-labeled ECs) in pulmonary arterial vessels ([2]; immunostaining, FIG. 9) | Medial thickness (SMA-labeled SMCs) in pulmonary arterial vessels ([2]; immunostaining, FIG. 9) | CC50 [5] [µM]
O=C1C2CSSC3(COCCN13)C(=O)N2Cc1ccccc1 (centres unmarked) [Compound 8, 12-benzyltetrahydro-5H,10H-4,10a-(epiminomethano)[1,4]oxazino[3,4-c][1,2,4]dithia zepine-5,11-dione] | significantly inhibits the protein phosphorylation | significantly reduces | significantly reduces | significantly inhibits the protein phosphorylation | – | – | – | – | –
CN1C(=O)C2(C)SSCC1C(=O)N2C (centres unmarked) [Compound 1, 1,6,8-trimethyl-2,3-dithia-6,8-diazabicyclo[3.2.2]nonane-7,9-dione] | – | significantly reduces | significantly reduces | – | > 500 | widens the pulmonary arterial vessels | induces the recovery of endothelial layer | reduction of medial thickness | > 500
